Laboratory results taken from PubChem BioAssay (NCI).
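Test compounds were applied to cells in 96-well plates for 48 hours at 5 doses. The concentration for 50% growth inhibition is given as GI50. TGI: concentration producing complete growth inhibition.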

Columns and labels:
Assay in all cases: growth of human tumour cells (NCI), 48 h
[1] = tested on: A498 renal
[2] = tested on: SNB-19 CNS
[3] = tested on: HCC-2998 colon
[4] = tested on: HOP-92 NSCLC
[5] = tested on: UACC-257 melanoma
[6] = tested on: HS 578T breast
[7] = tested on: MOLT-4 leukemia
[8] = tested on: MALME-3M melanoma
[9] = tested on: NCI-H226 lung
[10] = tested on: SW-620 colon
[11] = tested on: CAKI-1 renal
[12] = tested on: OVCAR-8 ovarian
[13] = tested on: U251 CNS
[14] = tested on: NCI-H522 lung
[15] = tested on: T-47D breast
[16] = tested on: CCRF-CEM leukemia
[17] = tested on: SNB-75 CNS
[18] = tested on: HOP-62 NSCLC
[19] = tested on: OVCAR-3 ovarian
[20] = tested on: NCI-H460 lung
[21] = tested on: COLO 205 colon
[22] = tested on: SF-268 CNS
[23] = tested on: DU-145 prostate
[24] = tested on: MCF7 breast
[25] = tested on: UO-31 renal
[26] = tested on: LOX IMVI melanoma
[27] = tested on: OVCAR-4 ovarian
[28] = tested on: NCI-H23 lung
[29] = tested on: PC-3 prostate
[30] = tested on: HT29 colon
[31] = tested on: HL-60(TB) leukemia
[32] = tested on: BT-549 breast
[33] = tested on: OVCAR-5 ovarian
[34] = tested on: A549 NSCLC
[35] = tested on: SK-OV-3 ovarian
[36] = tested on: IGROV1 ovarian
[37] = tested on: SN12C renal
[38] = tested on: SF-539 CNS
[39] = tested on: MDA-MB-435
[40] = tested on: RXF 393 renal
[41] = tested on: TK-10 renal
[42] = tested on: SK-MEL-2 melanoma
[43] = tested on: NCI/ADR-RES ovarian
[44] = tested on: ACHN renal
[45] = tested on: KM12 colon
[46] = tested on: EKVX NSCLC
[47] = tested on: RPMI-8226 leukemia
[48] = tested on: 786-0 renal
[49] = tested on: HCT-15 colon
[50] = tested on: SF-295 CNS
[51] = tested on: SK-MEL-5 melanoma
[52] = tested on: HCT-116 colon
[53] = tested on: K-562 leukemia
[54] = tested on: MDA-MB-231 breast
[55] = tested on: M14 melanoma
[56] = tested on: UACC-62 melanoma
[57] = tested on: SK-MEL-28 melanoma
[58] = tested on: MDA-MB-468 breast

CCOc1ccccc1NC(=O)N/C(N)=N/c1nc2ccccc2s1
GI50 [1]: 22100 nM | TGI [1]: 44600 nM | GI50 [2]: 31 nM | TGI [2]: 53800 nM | GI50 [3]: 24.2 nM | TGI [3]: 10900 nM | GI50 [4]: 6330 nM | TGI [4]: > 58700 nM | GI50 [5]: 32000 nM | TGI [5]: > 100000 nM | GI50 [6]: < 10.7 nM | TGI [6]: > 78600 nM | GI50 [7]: 38.8 nM | TGI [7]: > 33500 nM | GI50 [8]: < 18.5 nM | TGI [8]: 45100 nM | GI50 [9]: 43.5 nM | TGI [9]: 1480 nM | GI50 [10]: < 17.5 nM | TGI [10]: > 42300 nM | GI50 [11]: < 14.1 nM | TGI [11]: > 49000 nM | GI50 [12]: < 17.2 nM | TGI [12]: 26900 nM | GI50 [13]: < 16.4 nM | TGI [13]: 13700 nM | GI50 [14]: < 10 nM | TGI [14]: 20.1 nM | GI50 [15]: 13900 nM | TGI [15]: > 100000 nM | GI50 [16]: 28.9 nM | TGI [16]: > 32500 nM | GI50 [17]: < 10 nM | TGI [17]: > 69100 nM | GI50 [18]: < 20 nM | TGI [18]: 20000 nM | GI50 [19]: < 10 nM | TGI [19]: 11400 nM | GI50 [20]: 26.4 nM | TGI [20]: 10900 nM | GI50 [21]: 30.1 nM | TGI [21]: 106 nM | GI50 [22]: 84.6 nM | TGI [22]: > 100000 nM | GI50 [23]: 28.7 nM | TGI [23]: 11900 nM | GI50 [24]: 26.5 nM | TGI [24]: 23300 nM | GI50 [25]: < 30.8 nM | TGI [25]: > 88600 nM | GI50 [26]: < 14.8 nM | TGI [26]: 15100 nM | GI50 [27]: 11100 nM | TGI [27]: 63600 nM | GI50 [28]: < 18.6 nM | TGI [28]: 23000 nM | GI50 [29]: 25.2 nM | TGI [29]: > 74600 nM | GI50 [30]: 21 nM | TGI [30]: 67.3 nM | GI50 [31]: 17.7 nM | TGI [31]: 59.6 nM | GI50 [32]: 24.6 nM | TGI [32]: 126 nM | GI50 [33]: 37.8 nM | TGI [33]: > 41000 nM | GI50 [34]: 53.2 nM | TGI [34]: > 53100 nM | GI50 [35]: 49.1 nM | TGI [35]: > 77400 nM | GI50 [36]: 27.4 nM | TGI [36]: 30100 nM | GI50 [37]: 27.2 nM | TGI [37]: 13800 nM | GI50 [38]: < 11.9 nM | TGI [38]: < 22.5 nM | GI50 [39]: < 10 nM | TGI [39]: 14.6 nM | GI50 [40]: < 12.9 nM | TGI [40]: 40000 nM | GI50 [41]: > 39400 nM | TGI [41]: > 100000 nM | GI50 [42]: 25.9 nM | TGI [42]: 42500 nM | GI50 [43]: < 10 nM | TGI [43]: 29.8 nM | GI50 [44]: < 15.2 nM | TGI [44]: 22700 nM | GI50 [45]: < 13.8 nM | TGI [45]: > 45800 nM | GI50 [46]: 45.8 nM | TGI [46]: 35000 nM | GI50 [47]: 37.1 nM | TGI [47]: > 39700 nM | GI50 [48]: 29.6 nM | TGI [48]: 13300 nM | GI50 [49]: < 16.8 nM | TGI [49]: 12600 nM | GI50 [50]: < 16.4 nM | TGI [50]: 13800 nM | GI50 [51]: < 14.1 nM | TGI [51]: 34.1 nM | GI50 [52]: < 15.7 nM | TGI [52]: 310 nM | GI50 [53]: < 10 nM | TGI [53]: > 35600 nM | GI50 [54]: < 16.2 nM | TGI [54]: 744 nM | GI50 [55]: < 14 nM | TGI [55]: 23200 nM | GI50 [56]: < 10 nM | TGI [56]: > 55600 nM | GI50 [57]: 14500 nM | TGI [57]: > 100000 nM | GI50 [58]: 23.3 nM | TGI [58]: 61.5 nM
